# Measured values reported in patent US20240424134A1, “PEPTIDE HAVING INDEPENDENTLY STABILIZED HYDROPHOBIC ALPHA HELIX, PEPTIDE COMPLEX COMPRISING SAME AND USES THEREOF” (UIF (University Industry Foundation), Yonsei University, priority 2022, published 2024).
# Legend:
# [1] = CD (circular dichroism) spectroscopy of α-helix structure; type: physicochemical; details: Table 14; coil-rod-coil peptide complexes
# Method: To evaluate the structures of a linear plasmid DNA and peptides, CD spectra were analyzed using a Chirascan CD spectrometer (Applied Photophysics, UK). […] The final concentration of the linear plasmid DNA was 30 ng/μL. All the samples were dissolved in H2O. For the formation of the artificial chromosome, a mixture of the peptide and the DNA was incubated for 12 days or longer. Scanning was performed using a 2-mm path-length cuvette. Each scan was repeated three times and averaged. MRE (mean residue ellipticity) was calculated based on the number of amino acid residues.
# CD (circular dichroism) spectroscopy was performed as follows.
# The CD spectra were analyzed using a Chirascan CD spectrometer (Applied Photophysics, UK). […] All the samples were dissolved in H2O. Each scan was repeated three times using a 2-mm path-length cuvette and averaged. MRE (mean residue ellipticity) was calculated based on the number of amino acid residues.
# [2] = NMR residual dipolar couplings (RDC) under magnetic field; type: physicochemical; details: difference of 21.14 T and 16.45 T; 21 residues of α10; methanol-d3/chloroform-d
# Method: ^1H NMR and ^2D ^1H-^15N IPAP-HSQC (in-phase/anti-phase heteronuclear single quantum coherence) NMR spectra were acquired at 298 K using a Bruker AVANCE IV 900 MHz spectrometer and a BrukerAVANCE Ill HD 700 MHz spectrometer, both equipped with cryogenic probes. The NMR sample of PEG30-α10-PEG30 was dissolved in methanol-d3/chloroform-d (1:1) containing 0.05% TFA at a concentration of 4.26 mM. The acquisition parameters of IPAP were 2048 t2×1024 t1 points, 8 scans, 0.2 second recycle delay, 14 ppm spectral width for ^1H and 26 ppm spectral width for ^15N. The acquired data were split into two data sets, IP and AP, using a TopSpin software (Bruker, Germany). […]
# Anisotropic diamagnetic molecules placed in an isotropic solution are aligned when a magnetic field is applied. The behavior of the peptide according to the present disclosure under a magnetic field was analyzed. For this, RDCs (residual dipolar couplings) between ^1H-^15N amide pairs (^1DNH) were measured by NMR (nuclear magnetic resonance) at 16.45 T (700.400 MHz) and 21.14 T (900.230 MHz). […]
# Specifically, ^1H NMR and ^2D ^1H-^15N IPAP-HSQC (in-phase/anti-phase heteronuclear single quantum coherence) NMR spectra were analyzed at 298 K using a BrukerAVANCE IV 900 MHz spectrometer and a BrukerAVANCE Ill HD 700 MHz spectrometer equipped with cryogenic probes. […] Peak positions were analyzed using the NMRFAM-SPARKY software.
substance,measurement,setting,value
(PEG10)3AUAUAUAUAUAUAUAUAUAUA(PEG10)3 [Example 128],[θ]222/[θ]208,[1],1.15
same,"average RDC value (1DNH, exp)",[2],2.007 Hz
